Measured values taken from patent US5624903A, “Phosphoinositol-glycan-peptide with insulin-like action” (Heochst Aktiengesellschaft, priority 1991, dated 1997).

Key:
pieces of diaphragm = assay: Glycogenesis in rat diaphragm pieces ([14C]glucose into glycogen); assay type: cell-based; conditions: 10 nM
Protocol: (§1) Small pieces of tissue (5 mm diameter) were punched out of hemidiaphragms (Wistar rat, 60-70 g, no feed restriction) and washed several times.
(§2) To inactivate the insulin receptor in rat diaphragm, the pieces of tissue are incubated in KRH buffer (0.1 mM glucose in the presence of 50 μg/ml tetradecanoylphorbol acetate) at 25° C., passing O2 through continuously, for 90 min. The pieces of tissue are subsequently washed twice with KRH buffer and used for the relevant tests.
(§3) The experimental results obtained in the following experiments with tissue or cells in which the insulin receptor has been inactivated are indicated in parentheses in each case.
This test determines the glycogen synthesis which can be stimulated by insulin in myocytes and which embraces glucose transport through the plasma membrane and the conversion of the glucose into glycogen including the functional insulin signal transmission cascade.
Pieces of diaphragm are incubated with 50 μM D-[U-^14 C] glucose in KRH buffer in the presence or absence of insulin and PGP at 37° C. for 15 min. […] To determine the glycogen formed, the filters are transferred into TCA (5%), washed with ethanol and acetone and dried, and their radio-activity is determined by scintillation measurement ([^14 C]glycogen [dpm*10^-3 ]). […]

rat adipocytes [1] = assay: Protein synthesis in rat adipocytes ([3H]leucine incorporation); assay type: cell-based; conditions: 10 nM
Protocol: (§4) Adipose tissue from the epididymis (Wistar rat, 160-180 g, no feed restriction) is digested with collagenase, and the resulting isolated adipocytes are washed several times by flotation.
(§5) To inactivate the insulin receptor in rat adipocytes, the cells are treated with 10 to 40 μg/ml trypsin. After addition of protease inhibitors, the cells are washed twice by flotation, and incubation is continued at 37° C. for 15 min. These cells are then used for the test of stimulation of lipogenesis by the phosphoinositol-glycanpeptides.
as §3
The stimulation of protein synthesis differs from the metabolic effects of insulin measured in the previous determinations in that it belongs to the long-term actions of insulin (as growth hormone). The assay includes the insulin signal cascade.
Rat adipocytes are incubated in primary culture in Dulbecco's modified essential medium (DMEM) deplete in leucine with 50 μM L-[^3 H]-leucine in the presence of insulin and PGP at 37° C. for 4 hours. […] The cell-associated radioactivity, determined by scintillation measurement, serves as a measure of the protein synthesis and the amino-acid transport through the plasma membrane ([^3 H]leucine [dpm*10^-4 ]).

[2] = system: plasma membrane vesicles from rat adipocytes; assay: Intrinsic glucose transport activity in isolated plasma membrane vesicles; assay type: biochemical; conditions: 10 nM
Protocol: as §4, §5
The experimental results obtained in the following experiments with tissue or cells in which the insulin receptor has been inactivated are indicated in parentheses in each case. […]
Isolated plasma membrane vesicles are incubated in the presence or absence of insulin/PGP at 25° C. for 30 min. The vesicles are subsequently incubated with 50 μM D-[3-^3 H]-glucose and L-[1-^14 C]glucose of the same specific radioactivity at 25° C. for 90 sec. […] Their radioactivity is determined by liquid scintillation measurement. The specific transport (D-[^3 H]glucose/-L-^14 C]glucose [dpm*10^-3 ]) is calculated as the difference between the [^3 H] radioactivity and [^14 C] radioactivity.

rat adipocytes [3] = assay: Lipogenesis in rat adipocytes ([3H]glucose into lipids); assay type: cell-based; conditions: for Lipogenesis ([3H]lipid): 10 nM
Protocol: as §4, §5, §3
This test determines the conversion, which can be stimulated by insulin, of glucose into toluene-soluble products (triglycerides, phospholipids, fatty acids), which requires glucose transport and triglyceride (glycerol 3-P synthesis, esterification)/phospholipid/fatty acid synthesis including the insulin signal transmission cascade.
Rat adipocytes are incubated in KRH buffer with D-[3-^3 H]glucose (0.2 mM or 1 mM final concentration) in the presence or absence of insulin and PGP at 37° C. for 90 min. The cells are disrupted by adding a toluene-soluble scintillation cocktail, and the lipids are separated from water-soluble products and the incubation medium. After phase separation, the radioactivity incorporated in lipids is determined by scintillation measurement directly without removing the aqueous phase ([^3 H]lipid [dpm*10^-3 ]).

glycogen synthase = assay: Glycogen synthase activity in rat diaphragm pieces; assay type: cell-based; conditions: 10 nM
Protocol: as §1, §2, §3
The test determines the conversion, which can be stimulated by insulin, of activated glucose (UDP-glucose) into glycogen (glycogen synthase activity) including a functional insulin signal transmission cascade. […]
Pieces of diaphragm are incubated with D-glucose (0.1 mM) in the presence or absence of insulin and PGP at 37° C. for 30 min. […] The glycogen synthase activity is calculated as the fractional ratio between the I form of the enzyme (independent of glucose 6-phosphate, dephosphorylated, corresponds to the amount of active enzyme in the homogenate) and the D form of the enzyme (dependent on glucose 6-phosphate, phosphorylated, corresponds to the total amount of activatable enzyme in the homogenate) ([^14 C]glycogen [dpm*10^-3 ]).

[4] = insulin receptor inactivated (value in parentheses)

“Insulin: insulin stands for human insulin” was tested, and the “Glycogenesis ([14C]glycogen)” value (pieces of diaphragm; rat diaphragm pieces) was 8.4 dpm*10^-3, the “Glycogenesis ([14C]glycogen)” value (pieces of diaphragm; rat diaphragm, insulin receptor inactivated (value in parentheses)) was 4.1 dpm*10^-3 and the “Protein synthesis ([3H]leucine)” value (rat adipocytes [1]; [4]) was 4.0 dpm*10^-4. The “Protein synthesis ([3H]leucine)” value (rat adipocytes [1]; rat adipocytes, 4 hours) was 10.1 dpm*10^-4, the “Intrinsic glucose transport (specific transport D-[3H]glucose/L-[14C]glucose)” value [2, 4] was 2.3 dpm*10^-3 and the “Intrinsic glucose transport (specific transport D-[3H]glucose/L-[14C]glucose)” value ([2]; plasma membrane vesicles) was 2.5 dpm*10^-3. The “Lipogenesis ([3H]lipid)” value (rat adipocytes [3]; rat adipocytes) was 11.2 dpm*10^-3, the “Lipogenesis ([3H]lipid)” value (rat adipocytes [3]; trypsin-treated adipocytes, insulin receptor inactivated (value in parentheses)) was 1.9 dpm*10^-3 and the “Lipogenesis which can be stimulated by insulin (in words)” value (rat adipocytes [3]; control incubation, adipocytes treated with 10 to 40 μg/ml trypsin) was “only very little lipogenesis which can be stimulated by insulin”. The Glycogen synthase (glycogen synthase; [4]) was 6.0 dpm*10^-3 and the Glycogen synthase (glycogen synthase; rat diaphragm pieces) was 10.1 dpm*10^-3.
